For orientation: Kd means the constant that tells how readily two partners part at equilibrium. Read a low Kd as tighter binding.

Test [1] addresses Liver Receptor Homolog-1 (LRH-1, NR5A2) (Homo sapiens, UniProt O00482). Nature of the test: crystal structure. Type of test: binding.
For the next test, the target named is T1, DAX-1 140-154 (Homo sapiens, UniProt P51843).
T1 chain: PRQGSILYSLLTSSK
Nature of the test: SPR. A general note: SPR reads the build-up and loss of mass on a sensor chip optically.

Liver Receptor Homolog-1 (LRH-1, NR5A2), sequence (O00482 294-541): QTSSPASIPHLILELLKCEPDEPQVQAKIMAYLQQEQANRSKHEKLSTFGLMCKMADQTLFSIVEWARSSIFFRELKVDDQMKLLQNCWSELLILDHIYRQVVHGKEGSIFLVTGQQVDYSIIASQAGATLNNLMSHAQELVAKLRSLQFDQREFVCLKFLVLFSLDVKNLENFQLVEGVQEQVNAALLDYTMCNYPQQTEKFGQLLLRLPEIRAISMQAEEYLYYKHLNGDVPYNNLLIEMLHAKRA

`CCCCCCCCCCCCCCCC(=O)OC[C@@H](COP(=O)(O)O[C@H]1[C@H](O)[C@@H](OP(=O)(O)O)[C@H](OP(=O)(O)O)[C@@H](OP(=O)(O)O)[C@H]1O)OC(=O)CCCCCCCCCCCCCCC` [PIP3] came in with a Kd in test [1] of 120 ± 9 nM.

B1: LRH-1 LBD (protein)
chain: SIPHLILELLKCEPDEPQVQAKIMAYLQQEQANRSKHEKLSTFGLMCKMADQTLFSIVEWARSSIFFRELKVDDQMKLLQNCWSELLILDHIYRQVVHGKEGSIFLVTGQQVDYSIIASQAGATLNNLMSHAQELVAKLRSLQFDQREFVCLKFLVLFSLDVKNLENFQLVEGVQEQVNAALLDYTMCNYPQQTEKFGQLLLRLPEIRAISMQAEEYLYYKHLNGDVPYNNLLIEMLHAK
In the test with DAX-1 140-154, B1 registered a Kd of 90 nM.

The record behind these values is PMC4651778 (Journal of structural biology, 2015).
